In brackets after ≈: the same amount, converted by molar mass. Like-named read-outs stand apart in the source and are kept apart here.
Assays:
[1] = target: T1, Aldose Reductase (Bos taurus, UniProt P16116); assay: Inhibition of aldose reductase in vitro (enzyme from beef eye lenses, glyceraldehyde substrate); assay type: biochemical; conditions: in DMF solution, read-out: percentages of inhibition (aldose reductase); for inhibition at 100 µM: 10^-4 mole/l; for inhibition at 10 µM: 10^-5 mole/l; for inhibition at 1 µM: 10^-6 mole/l
T1 construct: The enzyme is extracted from beef eye lenses; from tissue; host or cells: beef eye lenses
Source text: Inhibition of Aldose Reductase In Vitro
The reoxidation of NADPH coupled to the enzymatic reaction was followed spectrophotometrically at 340 nm.

[2] = target: T2, COMT (Rattus norvegicus, UniProt P22734); assay: Inhibition of COMT in vitro (enzyme from rat liver, 4-nitrocatechol substrate); assay type: biochemical; conditions: in dimethylsulfoxide solution, read-out: percentages of inhibition (COMT); for inhibition at 100 µM: 10^-4 mole/l; for inhibition at 10 µM: 10^-5 mole/l; for inhibition at 1000 µM: 10^-3 mole/l
T2 construct: The enzyme is extracted from rat liver; from tissue; host or cells: rat liver
T2 sequence (P22734 1-221 isoform P22734-2): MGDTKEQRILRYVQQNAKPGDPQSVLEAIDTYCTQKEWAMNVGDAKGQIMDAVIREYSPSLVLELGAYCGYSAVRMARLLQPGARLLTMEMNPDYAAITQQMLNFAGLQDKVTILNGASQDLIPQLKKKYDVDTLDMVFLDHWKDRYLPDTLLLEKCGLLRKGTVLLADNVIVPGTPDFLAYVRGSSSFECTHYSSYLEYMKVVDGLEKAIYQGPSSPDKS
Method: Inhibition of COMT in vitro The enzyme is extracted from rat liver by the method described by Axelrod et al, J. Biol. Chem., 233, 702(1958); its activity is measured in the presence of S-adenosyl methionine and using as substrate 4-nitrocatechol by the method described by Lee et al, J. Pharm. Sci., 66(7), 986(1977). The quantity of 4-nitrocatechol consumed was determined spectrophotometrically at 520 nm in alkaline medium.

[3] = Solubilities in water; assay type: physicochemical; conditions: water
[4] = system: carragenin edema; assay: Anti-inflammatory activity: carragenin edema test; assay type: in vivo; conditions: Rattus norvegicus, ip, saturated bicarbonate solution, read-out: % inhibition of carragenin edema; for inhibition in vivo at 50 mg/kg: 50 mg/kg i.p.; for inhibition in vivo at 100 mg/kg: 100 mg/kg i.p.
Method: Anti-inflammatory activity
This was determined by the carragenin edema test using male Wistar EOPS rats. Inflammation was induced by the injection of 0.1 ml of a suspension of 5% carragenin in physiological serum into the muscular bundle of the metatarsal region of the posterior paw of the animal. The test substance was administered i.p. in neutralized solution at the same time as the carragenin.
Edema was measured by plethysmometry at different times after the administration of the carragenin.
Tables IV and V show the percentages of inhibition as a function of time and of dosage for certain compounds of the present invention.
The above results were obtained for solutions of substantially alkaline
The reference experiments were performed using physiological serum brough
to a pH approximately the same as the pH of the solutions to be tested.

C[C@@H]1O[C@@H](OC[C@H]2O[C@@H](Oc3c(-c4ccc(O)c(O)c4)oc4cc(O)cc(O)c4c3=O)[C@H](O)[C@@H](O)[C@@H]2O)[C@@H]2OC3(O[C@@H]2[C@H]1O)C1CC2CC(C1)CC3C2 (stereo partly drawn) [No. 33, 3-O-(2,3-O,O-adamantylidene-6-α-L-rhamnosyl-β-D-glucosyl)quercetin]
inhibition at 100 µM [1]: 100% | inhibition at 10 µM [1]: 92% | inhibition at 1 µM [1]: 44% | inhibition at 0.1 µM ([1]; 10^-7 mole/l): 7% | inhibition at 100 µM [2]: 81 to 83% | inhibition at 10 µM [2]: 33 to 36%

O=c1ccc2cc(O[C@@H]3O[C@@H]4COC(c5ccc(O)c(O)c5)O[C@H]4[C@H](O)[C@H]3O)c(O)cc2o1 (stereo partly drawn) [No. 24, 6-O-(4,6-O,O-(3,4-dihydroxybenzylidene)-β-D-glucosyl) esculetol]
inhibition at 100 µM [1]: 71% | inhibition at 10 µM [1]: 0%

Cc1ccc(C2(C)O[C@@H]3[C@@H](O)[C@H](C)O[C@@H](OC[C@H]4O[C@@H](Oc5c(-c6ccc(O)c(O)c6)oc6cc(O)cc(O)c6c5=O)[C@H](O)[C@@H](O)[C@@H]4O)[C@@H]3O2)cc1 (stereo partly drawn) [No. 35, 3-O-(2,3-O,O-(α-methyl-p-methylbenzylidene)-6-α-L-rhamnosyl-β-D-glucosyl) quercetin]
inhibition at 100 µM [1]: 100% | inhibition at 10 µM [1]: 72% | inhibition at 1 µM [1]: 26% | inhibition at 1000 µM [2]: 90% | inhibition at 100 µM [2]: 74% | inhibition at 10 µM [2]: 72%

C[C@@H]1O[C@@H](OC[C@H]2O[C@@H](Oc3c(-c4ccc(O)c(O)c4)oc4cc(O)cc(O)c4c3=O)[C@H](O)[C@@H](O)[C@@H]2O)[C@@H]2OC(C)(c3ccc(Cl)cc3)O[C@@H]2[C@H]1O (stereo partly drawn) [No. 37, 3-O-(2,3-O,O-(α-methyl-p-chlorobenzylidene)-6-α-L-rhamnosyl-β-D-glucosyl) quercetin]
inhibition at 100 µM [1]: 100% | inhibition at 10 µM [1]: 59% | inhibition at 1 µM [1]: 24% | inhibition at 1000 µM [2]: 100% | inhibition at 100 µM [2]: 74% | inhibition at 10 µM [2]: 27%

C[C@@H]1O[C@@H](Oc2c(-c3cc(O)c(O)c(O)c3)oc3cc(O)cc(O)c3c2=O)[C@H](O)[C@H](O)[C@H]1O [Myricitrin, reference compound]
inhibition at 100 µM [1]: 83% | inhibition at 10 µM [1]: 56% | inhibition at 1 µM [1]: 9%

C[C@@H]1O[C@@H](O[C@H]2[C@H](Oc3cc(O)c4c(c3)O[C@H](c3ccc(O)cc3)CC4=O)O[C@H](CO)[C@@H](O)[C@@H]2O)[C@H](O)[C@H](O)[C@H]1O [Naringin, reference compound]
inhibition at 100 µM [1]: 33%

C[C@@H]1O[C@@H](OC[C@H]2O[C@@H](Oc3c(-c4ccc(O)c(O)c4)oc4cc(O)cc(O)c4c3=O)[C@H](O)[C@@H](O)[C@@H]2O)[C@@H]2OC(c3ccc(O)cc3)O[C@@H]2[C@H]1O (stereo partly drawn) [No. 23, 3-O-(2,3-O,O-p-hydroxybenzylidene-6-α-L-rhamnosyl-β-D-glucosyl)quercetin]
inhibition at 100 µM [1]: 80% | inhibition at 10 µM [1]: 41% | inhibition at 1000 µM [2]: 80% | inhibition at 100 µM [2]: 90% | inhibition at 10 µM [2]: 40%

COc1ccc([C@@H]2CC(=O)c3c(O)cc(O[C@@H]4O[C@H](CO[C@@H]5O[C@@H](C)[C@H](O)[C@@H](O)[C@H]5O)[C@@H](O)[C@H](O)[C@H]4O)cc3O2)cc1O [Hesperidin, reference compound]
solubility ([3]; read-out: Solubilities in water): 20 µg/mL (≈ 32.8 µM)

C[C@@H]1O[C@@H](Oc2c(-c3ccc(O)c(O)c3)oc3cc(O)cc(O)c3c2=O)[C@H](O)[C@H](O)[C@H]1O [Quercitrin, reference compound]
Solubilities in water [3]: insoluble

COc1ccc(C2O[C@@H]3[C@@H](O)[C@H](C)O[C@@H](OC[C@H]4O[C@@H](Oc5c(-c6ccc(O)c(O)c6)oc6cc(O)cc(O)c6c5=O)[C@H](O)[C@@H](O)[C@@H]4O)[C@@H]3O2)cc1 (stereo partly drawn) [No. 22, 3-O-(2,3-O,O-p-methoxybenzylidene-6-α-L-rhamnosyl-β-D-glucosyl)quercetin]
inhibition at 100 µM [1]: 92% | inhibition at 10 µM [1]: 79% | inhibition at 1 µM [1]: 0% | inhibition at 1000 µM [2]: 80 to 100% | inhibition at 100 µM [2]: 80 to 92% | inhibition at 10 µM [2]: 45%

C[C@@H]1O[C@@H](Oc2c(-c3cc(O)c(O)c(O)c3)oc3cc(O)cc(O)c3c2=O)[C@@H]2OC(C)(C)O[C@@H]2[C@H]1O [No. 14, 3-O-(2,3-O,O-isopropylidene-α-L-rhamnosyl)myricitin]
inhibition at 100 µM [1]: 93% | inhibition at 10 µM [1]: 83% | inhibition at 1 µM [1]: 11%

COc1ccc(C2(C)O[C@@H]3[C@@H](O)[C@H](C)O[C@@H](OC[C@H]4O[C@@H](Oc5c(-c6ccc(O)c(O)c6)oc6cc(O)cc(O)c6c5=O)[C@H](O)[C@@H](O)[C@@H]4O)[C@@H]3O2)cc1 (stereo partly drawn) [No. 36, 3-O-(2,3-O,O-(α-methyl-p-methoxybenzylidene)-6-α-L-rhamnosyl-β-D-glucosyl) quercetin]
inhibition at 100 µM [1]: 100% | inhibition at 10 µM [1]: 69% | inhibition at 1 µM [1]: 22% | inhibition at 1000 µM [2]: 91% | inhibition at 10 µM [2]: 15 to 22%

O=c1c(O)c(-c2ccc(O)c(O)c2)oc2cc(O)cc(O)c12 [quercetin, reference compound]
inhibition in vivo at 50 mg/kg ([4]; 1/2 h): 0% | inhibition in vivo at 100 mg/kg ([4]; 1/2 h): 2% | inhibition in vivo at 50 mg/kg ([4]; 1 h, 1 h 1/2): 0% | inhibition in vivo at 50 mg/kg ([4]; 1 h, 1 h): 0% | inhibition in vivo at 100 mg/kg ([4]; 1 h, 1 h 1/2): 8% | inhibition in vivo at 100 mg/kg ([4]; 1 h, 1 h): 0% | inhibition in vivo at 50 mg/kg ([4]; 2 h, 2 h): 0% | inhibition in vivo at 100 mg/kg ([4]; 2 h, 2 h): 7% | inhibition in vivo at 50 mg/kg ([4]; 3 h, 3 h): 0% | inhibition in vivo at 100 mg/kg ([4]; 3 h, 3 h): 0% | inhibition in vivo at 50 mg/kg ([4]; 4 h, 4 h): 0% | inhibition in vivo at 100 mg/kg ([4]; 4 h, 4 h): 0% | inhibition in vivo at 50 mg/kg ([4]; 5 h, 5 h): 0% | inhibition in vivo at 100 mg/kg ([4]; 5 h, 5 h): 0% | inhibition in vivo at 50 mg/kg ([4]; 6 h, 6 h): 0% | inhibition in vivo at 100 mg/kg ([4]; 6 h, 6 h): 0%

C[C@@H]1O[C@@H](OC[C@H]2O[C@@H](Oc3c(-c4ccc(O)c(O)c4)oc4cc(O)cc(O)c4c3=O)[C@H](O)[C@@H](O)[C@@H]2O)[C@@H]2OC3(CCC4CCCCC4C3)O[C@@H]2[C@H]1O (stereo partly drawn) [No. 28, 3-O-(2,3-O,O-(2-perhydronaphthylidene)-6-α-L-rhamnosyl-β-D-glucosyl) quercetin]
inhibition at 100 µM [1]: 67% | inhibition at 10 µM [1]: 62% | inhibition at 1 µM [1]: 0% | inhibition at 1000 µM [2]: 76% | inhibition at 100 µM [2]: 52% | inhibition at 10 µM [2]: 0%

Reference: patent publication US4211772A, “Benzopyran glycoside acetals and ketals” (Laboratoires Sarget, priority 1977, dated 1980)
